{
  "source": "patent US6890917B2",
  "about": "“Geldanamycin derivative and method of treating cancer using same” (The United States of America as represented by the …, priority 2001, dated 2005)",
  "system": "standard panel of 12 human tumor cell lines (NCI-H23, NCI-H522, MDA-MB-231, MDA-MB-435, SW-620, COLO 205, LOX IMVI, UACC-62, OVCAR-3, OVCAR-5, U251, SF295)",
  "assay": "Hollow fiber assay (HFA) with stable endpoint MTT assay, compound given to mice carrying intraperitoneal and subcutaneous fiber implants",
  "assay_type": "in vivo",
  "parameters": "Total HFA Score: scale not given here",
  "conditions": "for Total HFA Score / IP Score / SC Score: HFA in mice; for Total HFA Score: IP + SC scores; for IP Score: intraperitoneal fiber implants; for IP Score / SC Score: 2 points per 50% or greater reduction in viable cell mass; for SC Score: subcutaneous fiber implants; for in vivo anti-cancer activity compared with Compound C (in words): intraperitoneal injection, Table 1",
  "protocol": "Compounds A-C were tested in a hollow fiber assay for in vivo activity. Each compound was tested against a standard panel of 12 human tumor cell lines including NCI-H23, NCI-H522, MDA-MB-231, MDA-MB-435, SW-620, COLO 205, LOX IMVI, UACC-62, OVCAR-3, OVCAR-5, U251 and SF295. The cell lines were cultivated in RPMI-1640 containing 10% FBS and 2 mM glutamine. On the day preceding hollow fiber preparation, the cells were given a supplementation of fresh medium to maintain log phase growth. For fiber preparation, the cells were harvested by standard trypsinization technique and resuspended at the desired cell density. The cell suspensions were flushed into 1 mm polyvinylidene fluoride (PVDF) hollow fibers (MW exclusion of 500,000 Da) and subsequently heat-sealed at 2 cm intervals. The samples generated from these seals were placed into tissue culture medium and incubated at 37° C. in 5% CO2 for 24-48 hours prior to implantation. A total of 3 different tumor cell lines were prepared for each experiment so that each mouse received 3 intraperitoneal implants (1 of each tumor cell line) and 3 subcutaneous implants (1 of each tumor cell line). A total of 4 experiments were conducted on each mouse (3 cell lines/experiment×4 experiments=12 cell lines).\nOn the day of implantation, samples of each tumor cell line were quantitated for viable cell mass by a stable endpoint MTT assay so that the time 0 cell mass was known. In the MTT assay, the fibers were incubated in 6-well plates (1-6 fibers/well) with 3 mL of pre-warmed (37° C.) complete medium containing MTT (1 mg/mL) (Sigma) for 4 hours at 37° C. in 5% CO2. The MTT solution was aspirated and the fibers were washed with 2 mL of saline containing 2.5% protamine sulfate overnight at 4° C. A second wash was performed with 2 mL of saline containing 2.5% protamine sulfate, and the fibers were maintained at 4° C. for a minimum of 2 hours. The fibers were then removed from the protamine sulfate, individually wiped, placed in a 24-well plate (1 fiber/well), cut in half and dried overnight in a biosafety hood. To extract the formazan, DMSO was added (0.25 mL) to each well and the plates were rotated for 4 hours at room temperature. The extracted samples were transferred to 96-well plates and the OD was determined at 540 nm. From these spectrophotomeric measurements, the cytostatic and cytocidal capacities of the test compound were assessed.\nFollowing implantation of the hollow fibers, mice were treated with one of the compounds, as listed in Tables 1 and 2 starting on day 3 or 4 following fiber implantation and continuing once daily for a total of 4 doses. Each compound was either assessed by intraperitoneal injection (Example 1) or by oral administration (Example 2) at 2 dose levels with 3 mice/dose/experiment. Vehicle controls consisted of 6 mice receiving the compound diluent only. The fibers were collected from the mice on the day following the fourth compound treatment and subjected to the stable endpoint MTT assay. The optical density of each sample was determined spectrophotometrically at 540 nm and the mean of each treatment group was calculated. The percent net cell growth in each treatment group was determined and compared to the percent net cell growth in the vehicle treated controls.\nIn the context of the following examples, compounds were selected for further testing (e.g., time/dose exposure studies, preliminary pharmacology studies, subcutaneous xenograft efficacy studies) on the basis of several hollow fiber assay criteria, including (1) a reduction in net cell growth of 50% or greater in 10 of the 48 possible test combinations; (2) a reduction in net cell growth of 50% or greater in a minimum of 4 of the 24 distant site combinations (SC score); and/or (3) cell kill of 1 or more cell lines in either implant site (reduction in the viable cell mass below the level present at the start of the experiment). […]",
  "key": {"[1]": {"conditions": "compound by intraperitoneal injection once daily for 4 days, 2 dose levels (A, B: 75 and 50 mg/kg/dose; C: 20 and 13.4 mg/kg/dose)"}, "[2]": {"conditions": "compound orally (PO) once daily for 4 days, 75 and 50 mg/kg/dose"}},
  "data": [
    {"smiles": "CO[C@H]1/C=C\\C=C(/C)C(=O)NC2=CC(=O)C(NCCN(C)C)=C(C[C@@H](C)C[C@H](OC)[C@H](O)[C@@H](C)/C=C(\\C)[C@@H]1OC(N)=O)C2=O", "note": "[Compound A, 17-Dimethylaminoethylamino-17-demethoxygeldanamycin]", "values": [
      {"measurement": "Total HFA Score", "setting": "[1]", "value": 30},
      {"measurement": "IP Score", "setting": "[1]", "value": 20},
      {"measurement": "SC Score", "setting": "[1]", "value": 10},
      {"measurement": "in vivo anti-cancer activity compared with Compound C (in words)", "setting": "HFA", "value": "significantly greater in vivo anti-cancer activity"}
    ]},
    {"smiles": "CO[C@H]1/C=C\\C=C(/C)C(=O)NC2=CC(=O)C(NCCCN(C)C)=C(C[C@@H](C)C[C@H](OC)[C@H](O)[C@@H](C)/C=C(\\C)[C@@H]1OC(N)=O)C2=O", "note": "[Compound C, 17-Dimethylaminopropylamino-17-demethoxygeldanamycin, reference compound]", "values": [
      {"measurement": "Total HFA Score", "setting": "[1]", "value": 16},
      {"measurement": "IP Score", "setting": "[1]", "value": 14},
      {"measurement": "SC Score", "setting": "[1]", "value": 2}
    ]},
    {"smiles": "CO[C@H]1/C=C\\C=C(/C)C(=O)NC2=CC(=O)C(NCCN(C)C)=C(C[C@@H](C)C[C@H](OC)[C@H](O)[C@@H](C)/C=C(\\C)[C@@H]1OC(N)=O)C2=O.Cl", "note": "[Compound B, 17-Demethoxy-17-[[2-(dimethylamino)ethyl]amino]geldanamycin hydrochloride]", "values": [
      {"measurement": "Total HFA Score", "setting": "[1]", "value": 42},
      {"measurement": "Total HFA Score", "setting": "[2]", "value": 20},
      {"measurement": "IP Score", "setting": "[1]", "value": 24},
      {"measurement": "IP Score", "setting": "[2]", "value": 10},
      {"measurement": "SC Score", "setting": "[1]", "value": 18},
      {"measurement": "SC Score", "setting": "[2]", "value": 10},
      {"measurement": "in vivo anti-cancer activity compared with Compound C (in words)", "setting": "HFA", "value": "significantly greater in vivo anti-cancer activity"},
      {"measurement": "in vivo anti-cancer activity by oral administration (in words)", "setting": "HFA, oral administration, Table 2", "value": "significant in vivo anti-cancer activity"}
    ]}
  ]
}
